In the assay the test system is biofilms. The experiment in a line: pilot site cooling tower (building downtown Montreal) treated with biodispersant, DATS clogging monitor and direct microbiological measurements.

Consider `COC(C)COC(C)CO` (stereo not drawn) [dipropylene glycol methyl ether], for which, for the setting “300 ppm in recirculating water, no bactericide”, the “dig out of deposits covering the inside walls of the tower” value was “allowed first the dig out of the deposits”. Also, where the note is “after few days of treatment”, the “DATS clogging monitor measurements” value is reported as “the measurements were stabilized”. Moreover, under “without any bactericide injection”, the “direct measurements of the microbiological activity (bacterial population vs initial state)” value is listed as “downwards stabilization of the bacterial population”.

Values taken from patent US20060251692A1, “Use of glycol ethers as biodispersants in heating and cooling systems” (priority 2005, published 2006).
